The values that follow come from patent US5480914A, “Nonaqueous thixotropic drug delivery suspensions and methods of their use” (priority 1994, dated 1996).

The structures appear in SMILES notation. Entries after “also recorded” stand apart in the source; their conditions may differ. Structures can show the parent of a compound that is named as a salt. Where two headings read alike, the source gives them in different places.

Series [1] can be described thus: Stability of drugs and suspensions after gamma irradiation (chromatographic analysis). The protocol: Aseptic formulation of thixotropic pharmaceutical compositions was conducted in accordance with the teachings of the present invention as follows. […] Following the sizing operation, each individual drug was divided into lots, which were then placed in an atmosphere of either argon or air. Each lot was then sterilized using 1.0 or 2.5 Mrad of gamma radiation applied to the lots of each drug under argon or air. Concomitantly, colloidal silicon dioxide was sterilized using dry heat while perfluorodecalin was sterile filtered. The three components were then combined aseptically and blended using a high shear dispenser. The thixotropic pharmaceutical compositions were then analyzed by chromatographic techniques to determine the effect of gamma radiation on the stability of the ten drugs sterilized either in air or in the argon environment.

The conditions of series [2]: cited from earlier work; for Density / Kin. viscosity / Specific heat / Surface tension: 25° C.; for Boiling point: ambient pressure.
Series [3] deals with rabbit eyes.
Method: As a control, an aqueous solution containing the same amount of drug was prepared. The final concentration of the brimonidine in both formulations was 0.1% w/v. The nonaqueous thixotropic compositions of the present invention were administered in a low dose volume of 8 μl, while the prior art aqueous control was administered in a volume of 50 μl. The drugs were administered to one eye of the rabbit with both eyes subsequently monitored for changes in intraocular pressure.
Series [4] concerns glaucomatous monkeys. Nature of the series: Heart rate after topical levo-bunolol in conscious, glaucomatous monkeys. The format is in vivo, monkey. The protocol: (§1) To illustrate the high localized drug bioavailability and correspondingly low systemic side effects of the present invention, a pharmacology study was conducted on conscious, glaucomatous monkeys. Formulations of 0.25% w/v levo-bunolol, used to reduce intraocular pressure in glaucoma patients, were administered as an aqueous solution and as a thixotropic pharmaceutical composition made in accordance with the teachings of the present invention. The monkeys were monitored for reductions in intraocular pressure, indicating the desired localized drug action, and for changes in heart rate, indicating undesirable drug migration away from the target site and into the systemic circulation. The thixotropic compositions were administered in low dose volume 8 μl drops while the aqueous formulations were administered in prior art drop volumes of approximately 35 μl. FIG. 13A is the mean reduction in heart rate for the monkeys treated with the aqueous solution of the drug while FIG. 13B is the mean reduction in heart rate for the monkeys treated with the nonaqueous formulation.

Series [5] concerns glaucomatous monkeys. Nature of the series: Intraocular pressure after levo-bunolol in conscious, glaucomatous monkeys. Type of series: in vivo, monkey. The following applies: 0.25% w/v, 8 μl thixotropic versus approximately 35 μl aqueous. The protocol:
as §1

The subject of a further series is CHO cells. Nature of the series: Chinese hamster ovary (CHO) clonal cytotoxicity assay. The format is cell-based. The following applies: three-hour exposure. How it is done: To confirm the lack of toxicity associated with the thixotropic compositions of the present invention, a Chinese hamster ovary (CHO) clonal assay was performed to measure the cytotoxic effects of CSD and perfluorodecalin on cell viability. As is well-known in the art, the CHO clonal assay is extremely sensitive and is often used to test pharmaceutical composition toxicity. Different cell populations were exposed to 0.5% w/v CSD in perfluorodecalin, and from 0.01% to 0.1% w/v AGN 191053 dispersed in a suspension of 0.5% w/v CSD in perfluorodecalin. Straight perfluorodecalin was used as a negative control with a three-hour exposure period for each formulation tested.

Series [6] concerns eyes of New Zealand albino rabbits. Nature of the series: Ocular toxicity of CSD in perfluorodecalin, gross and slit lamp examination. Type of series: in vivo, rabbit. How it is done:
More specifically, CSD dispersions of 2% w/v, 1% w/v and 0.5% w/v were prepared as in Example 1 and topically administered to the rabbits six times, at one hour intervals. Dose volumes of 8 μl were used for each dispersion along with a perfluorodecalin control. Following the six topical installations, each of the eyes was subjected to gross and slit lamp examination.

Series [7] is described as follows: Flow curve analysis fitted to the Cross model (viscosity, yield stress). The format is physicochemical. The protocol: In order to determine the stress threshold at which the CSD network collapsed, stress sweeps were run on the five dispersions formulated in Example 1. The stress sweeps were conducted using a Carri-med and CNMR CS 100 rheometer with an optical encoder upgrade. The measuring geometry for all the CSD/perfluorodecalin dispersions was a 4 cm SS Flat Plate with solvent trap. The gap, selected after conducting probe studies using the 2.5% w/v CSD/perfluorodecalin dispersion, was set at 250 μm for the stress sweeps. The measuring geometry for perfluorodecalin was a recessed concentric cylinder and cup set at a 4 mm gap. These stress studies were run at 15° C. to minimize the evaporation of perfluorodecalin. For longer experiments (greater than 10 minutes), a cover was placed over the Flat Plate to prevent perfluorodecalin vaporization. FIG. 1 plots delta versus shear stress for each of the dispersions. Delta is the phase of the actual curve relative to the applied sinusoidal stress. […] This stress threshold is CSD concentration dependent and indicates the presence of an elastic three-dimensional network at low or resting stresses (i.e. low delta values). […]
To further characterize the rheology of the dispersions formulated in Example 1, complete flow curves, fit to the Cross model, were generated over a broad range of shear rates. […] Yield stresses were calculated from flow curve data.

The subject of series [8] is rabbit eyes. Nature of the series: Pupil diameter change after pilocarpine. The format is in vivo. The protocol:
Three different concentrations of pilocarpine were formulated as prior art aqueous solutions and as exemplary nonaqueous thixotropic pharmaceutical compositions according to the teachings of the present invention. Specifically, aqueous solutions and nonaqueous suspensions of 0, 0.1%, 0.5% and 2% pilocarpine were formulated under sterile conditions. The nonaqueous drug suspensions were made using 0.5% CSD uniformly dispersed in perfluorodecalin. Both sets of formulations were administered to rabbit eyes in drop volumes of 8 μl using positive displacement pipettes. Changes in pupil diameter were monitored with three rabbits being used for each concentration of each formulation. In particular, FIG. 12A illustrates the effects of the three different concentrations of […] administered using the nonaqueous vehicle while FIG. 12B illustrates equivalent data for the prior art solubilized aqueous pilocarpine.

Where [9] appears, read: 1.0 or 2.5 Mrad, under argon or air.

As for `Brc1c(NC2=NCCN2)ccc2nccnc12` [AGN 190342], in series [1], the “activity lost after gamma radiation” value is listed as “No more than 5%”.

With `FC1(F)C(F)(F)C(F)(F)C2(F)C(F)(C1(F)F)C(F)(F)C(F)(F)C1(F)C(F)(F)C(F)(F)C(F)(F)C(F)(F)C12F` (centres unmarked) [PPP, perfluoroperhydrophenanthrene], in series [2], the Density is 2.016 gms/mL, the Kin. viscosity is on record as 8.0 cSt, the Specific heat is reported as 0.27 g-cal/gm and the Surface tension is 21.6 dynes/cm. For the same molecule, in series [2], the Boiling point was 215 °C.

With `O` [Water], in series [2], the Density is given as 1.000 gms/mL, the Kin. viscosity is 1.00 cSt, the Specific heat is given as 1.00 g-cal/gm and the Surface tension was 72.0 dynes/cm.

Regarding `Brc1c(NC2=NCCN2)ccc2nccnc12` [brimonidine], the “peak mean intraocular pressure reduction, treated eye” value in the series on rabbit eyes [3] (0.1% w/v, 8 μl thixotropic versus 50 μl aqueous) is reported as “comparable to the much larger aqueous based prior art dosage”. The “intraocular pressure response, untreated eye” value in the series on rabbit eyes [3] (aqueous solution 0.1% w/v, 50 μl) is recorded as “undesirable pressure reduction in untreated eyes”; with rabbit eyes [3] (thixotropic composition 0.1% w/v, 8 μl, versus aqueous control) it was “significantly less intraocular pressure response in the untreated eye; also recorded: significant lower decrease in intraocular pressure in the untreated eyes”.

`CNCC(O)c1ccc(OC(=O)C(C)(C)C)c(OC(=O)C(C)(C)C)c1` (centres unmarked) [dipivalylepinephrine HCl]: the “activity lost after gamma radiation” value in [1] is given as “No more than 5%”.

In the case of `CC(C)(C)NC[C@H](O)COc1cccc2c1CCCC2=O` [levo-bunolol HCl], in series [1], the “activity lost after gamma radiation” value is given as “No more than 5%”.

Turning to `CC(C)(C)NC[C@H](O)COc1cccc2c1CCCC2=O` [levo-bunolol], the “decrease in heart rate, thixotropic relative to aqueous solution” value in the series on glaucomatous monkeys [4] (0.25% w/v, 8 μl thixotropic versus approximately 35 μl aqueous) is listed as 65%. The heart rate response entry in the series on glaucomatous monkeys [4] (prior art aqueous delivery vehicle) was “undesirable decrease in heart rate”. Besides, the “reduction in intraocular pressure, thixotropic versus aqueous” value in the series with glaucomatous monkeys [5] is recorded as “almost identical”.

Regarding `CC1COc2c(N3CCN(C)CC3)c(F)cc3c(=O)c(C(=O)O)cn1c23` (centres unmarked) [ofloxacin], the “activity lost after gamma radiation” value in series [1] was “No more than 5%”.

`FC1(F)C(F)(F)C(F)(F)C2(F)C(F)(F)C(F)(F)C(F)(F)C(F)(F)C2(F)C1(F)F` (centres unmarked) [perfluorodecalin, Perfluoro(decahydronaphthalene)]: in series [2], the Density was 1.929 gms/mL, the Kin. viscosity is 2.9 cSt, the Specific heat was 0.22 g-cal/gm and the Surface tension is given as 19.3 dynes/cm. In [2], the Boiling point was 142 °C. For the same molecule, the specific gravity in series [2] (used to convert drop weight to volume) is 1.93 g/mL. For the same molecule, the “chemical toxicity to CHO cells” value in the series with CHO cells is reported as “Neither the perfluorodecalin nor the CSD/perfluorodecalin formulations exhibited any chemical toxicity”. Moreover, in [6] (6 topical doses of 8 μl at one hour intervals), the “toxicity (cornea)” value is “no discomfort, irritation, or toxicity”. In [6] (rabbit, in vivo), the eye discomfort result is listed as “no discomfort, irritation, or toxicity” and the “irritation (conjunctiva)” value is on record as “no discomfort, irritation, or toxicity”. In addition, in series [7], the “viscosity of pure perfluorodecalin without CSD” value turned out to be 9.2 centipoise. The molecule also had a Newtonian viscosity in [7] (0% CSD) of 0.092 poise.

Consider `CC[C@@H]1C(=O)OC[C@@H]1Cc1cncn1C` [pilocarpine], for which, in the series with rabbit eyes [8] (nonaqueous formulation versus aqueous), the “recovery period of pupil diameter” value is “prolonged recovery period”. The “reduction in pupil size” value in the series with rabbit eyes [8] (nonaqueous thixotropic versus aqueous, equivalent drug concentrations, 8 μl) is recorded as “greater pharmaceutical effect, i.e. a reduction in pupil size”.

As to `CC(=O)OCC(=O)[C@@]1(O)CC[C@H]2[C@@H]3CCC4=CC(=O)C=C[C@]4(C)[C@H]3[C@@H](O)C[C@@]21C` [prednisolone acetate], the “activity lost after gamma radiation” value in series [1] (setting [9]) was “No more than 5%”.

Consider `Cc1nnc(SCC2=C(C(=O)O)N3C(=O)[C@@H](NC(=O)Cn4cnnn4)[C@H]3SC2)s1` [sodium cephazolin], for which the “activity lost after gamma radiation” value in [1] is “No more than 5%”.

In the case of `O=C(O)c1cc(=O)c2c(OCC(O)COc3cccc4oc(C(=O)O)cc(=O)c34)cccc2o1` [sodium cromoglycate], the “activity lost after gamma radiation” value in series [1] is listed as “No more than 5%”.

On to `CC(C(=O)O)c1ccc(-c2ccccc2)c(F)c1` (centres unmarked) [sodium flurbiprofen], for which the “activity lost after gamma radiation” value in [1] is “No more than 5%”.

As for `CC(C)(C)NC[C@H](O)COc1nsnc1N1CCOCC1` [timolol], the “activity lost after gamma radiation” value in series [1] (setting [9]) is “No more than 5%”.
